Test results: ChEMBL document CHEMBL3286185, “Constituents of the roots of Clausena lansium and their potential anti-inflammatory activity” (J Nat Prod, 2014)

Tests used:
[1] = Antiinflammatory activity in human neutrophil assessed as inhibition of FMLP/CB-induced superoxide anion generation pretreated for 5 mins by spectrophotometry; assay type: functional, cell-based
[2] = Antiinflammatory activity in human neutrophil assessed as inhibition of FMLP/CB-induced elastase release for 5 mins; assay type: functional, cell-based

Compound `C/C(=C\COc1c2occc2cc2ccc(=O)oc12)C[C@H]1C[C@H](C)C(=O)O1` has an IC50 [1] of 8.4 µM and an IC50 [2] greater than 10 µM.
Work on `COc1cc(C=O)cc2c1[nH]c1ccccc12` [MURRAYANINE] yielded an IC50 [1] of 3.5 µM and an IC50 [2] of 3.9 µM.
For `O=Cc1cc(O)c2[nH]c3ccccc3c2c1` [O-DEMETHYLMURRAYANINE], the IC50 [1] was 3.5 µM and the IC50 [2] was 6.9 µM.
Work on `COC(=O)c1ccc2[nH]c3ccccc3c2c1` yielded an IC50 [1] of 4.3 µM and an IC50 [2] greater than 10 µM.
Compound `CC(C)=CCc1c(C=O)cc(O)c2[nH]c3ccccc3c12` has an IC50 [1] greater than 10 µM and an IC50 [2] of 2 µM.
In the case of `CC(C)=CCOc1c2ccoc2cc2oc(=O)ccc12` [ISOIMPERATORIN], the IC50 [1] is reported as 4.2 µM and the IC50 [2] is reported as greater than 10 µM.
`CC(C)=CCC/C(C)=C/COc1c2occc2cc2ccc(=O)oc12` gave an IC50 [1] of 1.9 µM and an IC50 [2] greater than 10 µM.
Work on `O=c1cc(N2CCOCC2)oc2c(-c3ccccc3)cccc12` [LY-294002] yielded an IC50 [1] of 1 µM and an IC50 [2] of 1.5 µM.
In the case of `CC1=C[C@H](C/C(C)=C\COc2c3occc3cc3ccc(=O)oc23)OC1=O`, the IC50 [1] is reported as 6.1 µM and the IC50 [2] is reported as greater than 10 µM.
`CC(C)=CCOc1c2occc2cc2ccc(=O)oc12` [PENTOSALEN] gave an IC50 [1] of 3.5 µM and an IC50 [2] greater than 10 µM.
Work on `CC(C)=CCc1c(O)ccc2ccc(=O)oc12` [OSTHENOL] yielded an IC50 [1] of 2.6 µM and an IC50 [2] greater than 10 µM.
For `COc1ccc2[nH]c3cc(OC)c(C=O)cc3c2c1` [GLYCOZOLIDAL], the IC50 [1] was 4.6 µM and the IC50 [2] was greater than 10 µM.
